From article PMC9048847 (RSC Advances, 2020)

Biological target: human thrombin (Homo sapiens, UniProt P00734)
Experiment: Fluorescence-based thrombin inhibition assay
Assay type: biochemical

| Molecule | IC50 [µM] | Anti-thrombin activity (in words) |
| --- | --- | --- |
| CC(C)=CCc1cc([C@@H]2CC(=O)c3ccc(O)c(CC=C(C)C)c3O2)ccc1O [compound 11, glabrol] | > 100 | – |
| O=C1C[C@@H](c2ccc(O[C@@H]3O[C@H](CO)[C@@H](O)[C@H](O)[C@H]3O)cc2)Oc2cc(O)ccc21 [compound 12, liquiritin] | > 100 | – |
| O=C(/C=C/c1ccc(O)cc1)c1ccc(O)cc1O [compound 2, isoliquiritigenin] | 17.9 ± 2.75 | moderate |
| COc1cc(O)ccc1/C=C/C(=O)c1ccc(O)cc1 [compound 6, echinatin] | 28.5 ± 2.65 | moderate |
| isoliquiritin apioside [compound 8] | – | moderate |
| O=C(/C=C/c1ccc(O[C@@H]2O[C@H](CO)[C@@H](O)[C@H](O)[C@H]2O)cc1)c1ccc(O)cc1O [compound 1, isoliquiritin] | 38.8 ± 4.04 | moderate |
| CC(C)=CCc1c(O)cc2oc(-c3ccc(O)cc3)c(O)c(=O)c2c1O [compound 14, licoflavonol] | > 100 | – |

Next, values leading:

| IC50 [µM] | Anti-thrombin activity (in words) | Molecule |
| --- | --- | --- |
| > 100 | – | CC1(C)[C@@H](O[C@H]2O[C@H](C(=O)O)[C@@H](O)[C@H](O)[C@H]2O[C@@H]2O[C@H](C(=O)O)[C@@H](O)[C@H](O)[C@H]2O)CC[C@]2(C)[C@H]3C(=O)C=C4[C@@H]5C[C@@](C)(C(=O)O)CC[C@]5(C)CC[C@@]4(C)[C@]3(C)CC[C@@H]12 [compound 19, glycyrrhizic acid] |
| 36.1 ± 4.68 | – | O=c1cc(-c2ccccc2)oc2cc(O)c(O)c(O)c12 [compound 23, Baicalein, reference compound] |
| > 100 | – | CC1(C)[C@@H](O)CC[C@]2(C)[C@H]3C(=O)C=C4[C@@H]5C[C@@](C)(C(=O)O)CC[C@]5(C)CC[C@@]4(C)[C@]3(C)CC[C@@H]12 [compound 18, glycyrrhetinic acid] |
| > 100 | – | COc1c2c(cc3oc(=O)c4c5ccc(O)cc5oc4c13)OC(C)(C)CC2 [compound 17, isoglycyrol] |
| > 100 | – | COc1c(CC=C(C)C)c(O)cc2oc(=O)c(-c3ccc(O)cc3O)cc12 [compound 16, glycycoumarin] |
| > 100 | – | CC1(C)C=Cc2c(ccc3c2OC[C@@H](c2ccc(O)cc2O)C3)O1 [compound 20, glabridin] |
| 8.05 ± 1.5 | – | COc1cc(O)c2c(=O)cc(-c3ccc(OC)c(-c4c(O)cc(O)c5c(=O)cc(-c6ccc(O)cc6)oc45)c3)oc2c1 [compound 22, Ginkgetin, reference compound] |
| > 100 | – | CC(C)=CCc1cc(-c2oc3cc(O)cc(O)c3c(=O)c2O)ccc1O [compound 15, isolicoflavonol] |
